Laboratory results taken from patent publication US12466856B2, “Echinocandin analogues and preparation method therefor” (SHANGHAI SENHUI MEDICINE CO., LTD., priority 2019, dated 2025).
≈ marks a conversion by molar mass, not a printed value. Like-named read-outs stand apart in the source and are kept apart here. Starred links: 1 amine or outer side, 2 acyl side, 3 side chain; linkers in the order of their positions; H or OH if unused. Positions of bridges follow the written chain, without caps; N, C: chain ends. Non-standard residues stand in square brackets, D forms with d. Residues, ends and D or L forms follow the SMILES beside them. *: point of attachment. pTerphenylCO(4''-OnC5H11) = CCCCCOc1ccc(-c2ccc(-c3ccc(C(=O)*)cc3)cc2)cc1; Orn(4R-OH,5R-OH) = O=C([C@H](C[C@@H](O)[C@@H](O)N[*:3])N[*:1])[*:2]; hTyr(3S-OH,4S-OH) = N[C@H](C(=O)O)[C@H](O)[C@@H](O)c1ccc(O)cc1; Pro(3S-OH,4S-Me) = C[C@H]1CN[C@H](C(=O)O)[C@H]1O; Hyp = O=C(O)[C@@H]1C[C@@H](O)CN1

How the values were obtained:
[1] = system: Candida albicans ATCC 90029; assay: MIC assay (CLSI M27-A3), Candida albicans ATCC 90029; assay type: cell-based; conditions: for MIC: Candida albicans, read-out: MIC, Candida albicans ATCC 90029
Method: (§1) After a test compound was serially diluted, an MIC (minimum inhibitory concentration) assay was performed on the standard Candida strain and an MEC (minimum effective concentration) assay on the standard Aspergillus strain. The MIC assay was performed according to the guidelines of the Clinical and Laboratory Standards Institute (CLSI M27-A3) and the MEC assay according to the guidelines of the Clinical and Laboratory Standards Institute (CLSI M38-A2).
(§2) The frozen strain was passaged at least twice, and a single colony was picked and resuspended in normal saline or sterile water in a tube. The suspension was vortexed and adjusted to 0.5 McF (1×10^6 to 5×10^6 CFU/mL) using a spectrophotometer at wavelength 530 nm. The suspension was 50-fold diluted with normal saline and then 20-fold diluted with 1×RPMI 1640 broth (1×10^3 to 5×10^3 CFU/mL). 10 μL of the suspension was applied to an SDA plate for colony counting, with a range from about 10 to 50 single colonies.
(§3) At this time, the bacterium concentration in each well should be 0.5×10^3 to 2.5×10^3 CFU/mL.
(§4) For echinocandin drugs, Aspergillus was incubated at 28° C. for 21-26 h, and then the MEC results were read.
(§5) Yeast-type fungi: A disposable sealing film was applied to the 96-well plate, and the mixture was well mixed by shaking. Observation was performed through a plate reader with the naked eye. Comparisons were made to the growth control, and the minimum compound concentration corresponding to ≥50% growth inhibition was defined as MIC. Pictures were taken and saved using an automatic plate reader.

[2] = system: Candida glabrata ATCC 15126; assay: MIC assay (CLSI M27-A3), Candida glabrata ATCC 15126; assay type: cell-based; conditions: for MIC: Nakaseomyces glabratus, read-out: MIC, Candida glabrata ATCC 15126
Method: as §1, §2, §3, §4, §5

[3] = system: Candida parapsilosis ATCC 22019; assay: MIC assay (CLSI M27-A3), Candida parapsilosis ATCC 22019; assay type: cell-based; conditions: for MIC: Lodderomyces parapsilosis, ATCC22019, 24 h, read-out: MIC, Candida parapsilosis ATCC 22019
Method: as §1, §2, §3, §4, §5

Candida krusei ATCC 6258 = assay: MIC assay (CLSI M27-A3), Candida krusei ATCC 6258; assay type: cell-based; conditions: for MIC: Pichia kudriavzevii, ATCC6258, 24 h, read-out: MIC, Candida krusei ATCC 6258
Method: as §1, §2, §3, §4, §5

[4] = system: Meyerozyma guilliermondii ATCC 6260; assay: MIC assay (CLSI M27-A3), Meyerozyma guilliermondii ATCC 6260; assay type: cell-based; conditions: for MIC: Meyerozyma guilliermondii, read-out: MIC, Meyerozyma guilliermondii ATCC 6260
Method: as §1, §2, §3, §4, §5

[5] = system: Candida tropicalis ATCC 750; assay: MIC assay (CLSI M27-A3), Candida tropicalis ATCC 750; assay type: cell-based; conditions: for MIC: Candida tropicalis, read-out: MIC, Candida tropicalis ATCC 750
Method: as §1, §2, §3, §4, §5

[6] = system: Aspergillus flavus ATCC 28539; assay: MEC assay (CLSI M38-A2), Aspergillus flavus ATCC 28539; assay type: cell-based; conditions: first batch; 28° C., 21-26 h
Method: The MIC assay was performed according to the guidelines of the Clinical and Laboratory Standards Institute (CLSI M27-A3) and the MEC assay according to the guidelines of the Clinical and Laboratory Standards Institute (CLSI M38-A2).
Colonies on the plate were covered with about 1 mL of 0.85% normal saline or sterile water (polysorbate 20 was added at a final concentration of 0.1%-0.01%). […] The homogeneous upper layer of the suspension was transferred to a new sterile tube, which was then sealed and vortexed for 15 s (be careful as the suspension may produce an aerosol when the cover is removed). The concentration of the suspension was adjusted until an OD value of 0.09-0.13 was achieved using a spectrophotometer at 530 nm. […] 100 μL of sample was added to each well of the 96-well plate within 2 h after dilution (the final spore concentration in the susceptibility testing plate was at 0.4×10^4 to 5×10^4 CFU/mL).
Aspergillus: For echinocandin drugs, comparisons were made to the growth control under a plate reader, and the minimum drug concentration that could cause the hyphae to form small, round, compact hyphal particles was defined as MEC. For accurate determination of MEC values, the plate must not be vortexed before reading.

[7] = system: Candida albicans ATCC 90028; assay: MIC assay (CLSI M27-A3), Candida albicans ATCC 90028; assay type: cell-based; conditions: second batch
Method: as §1, §2
At this time, the bacterium concentration in each well should be 0.5×10^3 to 2.5×10^3 CFU/mL. […]
as §5

[8] = system: Candida albicans ATCC 44858; assay: MIC assay (CLSI M27-A3), Candida albicans ATCC 44858; assay type: cell-based; conditions: second batch
Method: as §1, §2, §3, §4, §5

[9] = system: Candida glabrata ATCC 36583; assay: MIC assay (CLSI M27-A3), Candida glabrata ATCC 36583; assay type: cell-based; conditions: second batch
Method: as §1, §2, §3, §4, §5

[10] = system: Candida albicans (azole drug-resistant strain) R357; assay: MIC assay (CLSI M27-A3), Candida albicans azole drug-resistant strain R357; assay type: cell-based; conditions: second batch
Method: as §1, §2, §3, §4, §5

[11] = system: Candida albicans (azole drug-resistant strain) R358; assay: MIC assay (CLSI M27-A3), Candida albicans azole drug-resistant strain R358; assay type: cell-based; conditions: second batch
Method: as §1, §2, §3, §4, §5

[12] = system: Candida tropicalis (amphotericin-resistant strain) ATCC 200956; assay: microbe, parasite or virus in culture; assay type: cell-based; conditions: second batch
Method: as §1, §2, §3, §4, §5

[13] = Plasma histamine assay after single intravenous injection in SD rats; assay type: in vivo; conditions: SD rats
Method: (§6) 12 SD rats were divided into 2 groups of 6 (half are male and half female). […] The body weights were measured once before administration. Administration was performed by single intravenous injection for 20 min per animal. PK measurement was performed once before administration and 5 min, 30 min, 1 h, 4 h, 8 h, 24 h, 48 h, 72 h and 96 h after administration. A histamine assay was performed once before administration and 30 min, 4 h, 8 h and 24 h after administration.

[14] = Pharmacokinetic study after single intravenous injection in SD rats; assay type: in vivo; conditions: 10 mg/kg single intravenous injection
Method: as §6

[15] = General state observation after single intravenous injection in SD rats; assay type: in vivo; conditions: 10 mg/kg single intravenous injection
Method: as §6

[16] = first batch, 24 h, 35° C., ≥50% growth inhibition
[17] = first batch, 24 h, 35° C., quality control strain

CCCCCOc1ccc(-c2ccc(-c3ccc(C(=O)N[C@H]4C[C@@H](O)[C@@H](OCC5CCCC[N+]5(C)C)NC(=O)[C@@H]5[C@@H](O)[C@@H](C)CN5C(=O)[C@H]([C@@H](C)O)NC(=O)[C@H]([C@H](O)[C@@H](O)c5ccc(O)cc5)NC(=O)[C@@H]5C[C@@H](O)CN5C(=O)[C@H]([C@@H](C)O)NC4=O)cc3)cc2)cc1 (stereo partly shown) [Example 2]
MIC ([1]; ATCC90029, first batch, 24 h, 35° C., ≥50% growth inhibition): 0.125 µg/mL | MIC ([2]; ATCC15126, first batch, 24 h, 35° C., ≥50% growth inhibition): 0.125 µg/mL | MIC [3]: 1 µg/mL | MIC (Candida krusei ATCC 6258): 0.125 µg/mL | MIC ([4]; ATCC6260, first batch, 24 h, 35° C.): 2 µg/mL | MIC ([5]; ATCC750, first batch, 24 h, 35° C.): 0.016 µg/mL | MEC, Aspergillus flavus ATCC 28539 [6]: 0.031 µg/mL

CCCCCOc1ccc(-c2ccc(-c3ccc(C(=O)N[C@H]4C[C@@H](O)[C@@H](O)NC(=O)[C@@H]5[C@@H](O)[C@@H](C)CN5C(=O)[C@H]([C@@H](C)O)NC(=O)[C@H]([C@H](O)[C@@H](O)c5ccc(O)cc5)NC(=O)[C@@H]5C[C@@H](O)CN5C(=O)[C@H]([C@@H](C)O)NC4=O)cc3)cc2)cc1 [Anidulafungin, reference compound] ({pTerphenylCO(4''-OnC5H11)}-[Orn(4R-OH,5R-OH)]T[Hyp][hTyr(3S-OH,4S-OH)]T[Pro(3S-OH,4S-Me)]; lactam 1-C)
MIC ([1]; ATCC90029, 24 h): 0.016 µg/mL (≈ 0.014 µM) | MIC ([2]; ATCC15126, 24 h): 0.125 µg/mL (≈ 0.11 µM) | MIC [3]: 0.5 µg/mL (≈ 0.438 µM) | MIC (Candida krusei ATCC 6258): 0.063 µg/mL (≈ 0.0553 µM) | MIC ([4]; ATCC6260, 24 h): 1 µg/mL (≈ 0.877 µM) | MIC ([5]; ATCC750, 24 h): 0.016 µg/mL (≈ 0.014 µM) | MEC, Aspergillus flavus ATCC 28539 [6]: 0.031 µg/mL

Rezafungin acetate
MIC, Candida albicans ATCC 90029 [1, 16]: 0.125 µg/mL | MIC, Candida glabrata ATCC 15126 [2, 16]: 0.125 µg/mL | MIC, Candida parapsilosis ATCC 22019 [3, 17]: 2 µg/mL | MIC, Candida krusei ATCC 6258 (Candida krusei ATCC 6258; [17]): 0.25 µg/mL | MIC, Meyerozyma guilliermondii ATCC 6260 ([4]; first batch, 24 h, 35° C.): 2 µg/mL | MIC, Candida tropicalis ATCC 750 ([5]; first batch, 24 h, 35° C.): 0.016 µg/mL | MEC, Aspergillus flavus ATCC 28539 [6]: 0.031 µg/mL | MIC, Candida albicans ATCC 90028 ([7]; 24 h, 35° C.): 0.25 µg/mL | MIC, Candida albicans + 50% human serum ATCC 90028 ([7]; + 50% human serum): 0.25 µg/mL | MIC, Candida albicans ATCC 44858 [8]: 0.25 µg/mL | MIC, Candida glabrata ATCC 36583 [9]: 0.25 µg/mL | MIC, Candida albicans (azole drug-resistant strain) R357 [10]: 0.25 µg/mL | MIC, Candida albicans (azole drug-resistant strain) R358 [11]: 0.25 µg/mL | MIC, Candida tropicalis (amphotericin-resistant strain) ATCC 200956 [12]: 0.25 µg/mL | mean plasma histamine concentration relative to group 1 ([13]; 10 mg/kg i.v., 30 min after administration, p=0.046): 4.5 times | time at which plasma histamine concentration peaked ([13]; 10 mg/kg single intravenous injection): 30 min | mean histamine concentration in the plasma ([13]; 10 mg/kg single intravenous injection, 30 min after administration): 1333.0 ng/mL | AUC0-96 ([14]; female SD rats): 205.8 µg·h/mL | AUC0-inf ([14]; female SD rats): 227.2 µg·h/mL | CL ([14]; female SD rats): 0.8 mL/min/kg | Cmax ([14]; female SD rats): 8.6 µg/mL | MRTIV ([14]; female SD rats): 39.1 h | T1/2 ([14]; female SD rats): 27.9 h | VdSS ([14]; female SD rats): 1.8 L/kg | AUC0-96 ([14]; male SD rats): 190.5 µg·h/mL | AUC0-inf ([14]; male SD rats): 212.1 µg·h/mL | CL ([14]; male SD rats): 0.8 mL/min/kg | Cmax ([14]; male SD rats): 7.8 µg/mL | MRTIV ([14]; male SD rats): 38.4 h | T1/2 ([14]; male SD rats): 28.0 h | VdSS ([14]; male SD rats): 1.8 L/kg | general state observation [15]: transient slight decrease in activity
